Broadly, the pIC50 is the IC50 on a negative log10 scale, so that one unit is a factor of ten. The term IC90 denotes the point of the concentration-response curve where the effect stands at 90%. Read a high IC90 as weaker potency.

pIC50: −log10 of the molar value.

For this assay, the system named is Mycobacterium tuberculosis H37Rv growth inhibition, no glycerol. The assay is described as follows: Confirmatory growth inhibition assay, Mycobacterium tuberculosis H37Rv, absence of glycerol (AID 449764).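 As to all read-outs here: growth read after 7 days of incubation.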 To be noted: for IC90: measured here: IC90 growth inhibition.

Take `COC(=O)c1ccc(-n2cnc3ccccc32)nc1`: the pIC50 is 4.75 and the 90% effect concentration (IC90) was 39.5 µM.
Regarding `CCOC(=O)COn1c2c(c3c4no[n+]([O-])c4ccc31)CCCC2`, the pIC50 was 5.25 and the IC90 came to 6.48 µM.
For `Oc1ccc(F)c2cccnc12`, in that order: 5.23 and 6.56 µM.
As for `CNC(=O)COC(=O)c1ccc(-c2nc3ccccc3s2)s1`, the negative-log IC50 (pIC50) is 5.01 and the 90% effect concentration (IC90) stood at 16.3 µM.
For `O=C(COC(=O)C1=COCCO1)NCc1ccc(Cl)cc1`, in that order: 4.55 and more than 100 µM.
With `COc1ccc(C2=NN(C(=O)COC(=O)c3ccc(S(C)(=O)=O)c([N+](=O)[O-])c3)C(c3ccco3)C2)cc1` (centres undefined), the negative-log IC50 (pIC50) is 4.74 and the IC90 was 26.9 µM.
Consider `COc1cccc2sc(Nc3nnc(-c4cccs4)o3)nc12`, for which the negative logarithm of the IC50 (pIC50) is 4.47 and the 90% effect concentration (IC90) stood at 42.7 µM.
For `C=CCN(CC(=O)c1sc(C(=O)OCC)nc1C)c1cccc(Br)c1`, in that order: 4.68 and 32.6 µM.
`C1=C(c2c[nH]c3ccccc23)CCNC1`: the pIC50 was 4.25 and the IC90 amounted to 73.9 µM.
For `CC(C)Cc1nc2oc3c(N4CCN(CCO)CC4)ncnc3c2c2c1CCCC2`, in that order: 4.74 and 24.9 µM.
As for `Cc1ccc2[nH]c3c(N4CCN(Cc5ccccc5)CC4)ncnc3c2c1`, the negative-log IC50 (pIC50) was 4.60 and the IC90 was 46 µM.
For `COC(=O)CSc1nnc(CNc2ccc(Cl)cc2)n1-c1ccccc1`, in that order: 4.65 and 25.3 µM.
For `Cc1cccc(/C=C/C(=O)c2ccc([N+](=O)[O-])o2)c1`, in that order: more than 6.70 and less than 0.2 µM.
For `CS(=O)(=O)c1ccc([C@@H](O)[C@@H](CF)NC(=O)C(Cl)Cl)cc1`, in that order: 4.78 and 27.8 µM.
Regarding `O=c1[nH]c(=O)n(Cc2ccccc2)c2nc(-c3ccc(Oc4ccc(F)cc4)c([N+](=O)[O-])c3)n(CCO)c12`, the pIC50 is 4.30 and the concentration for an effect of 90% (IC90) is more than 100 µM.
For `O=C(C[n+]1ccc(C(=O)c2ccccc2)cc1)Nc1ccc(C(F)(F)F)cc1`, in that order: 4.63 and 26.7 µM.
For `S=C(Nc1ccc(Nc2ccccc2)cc1)Nc1ccccn1`, in that order: 4.31 and more than 50 µM.
For `COc1ccc(Nc2nc(N3CCCCC3)nc3ccccc23)c(OC)c1`, in that order: 4.64 and 26 µM.
On to `CNC(CC(C)C)C(=O)NC1C(=O)NC(CC(N)=O)C(=O)NC2C(=O)NC3C(=O)NC(C(=O)NC(C(=O)O)c4cc(O)cc(O)c4-c4cc3ccc4O)C(O)c3ccc(c(Cl)c3)Oc3cc2cc(c3OC2OC(CO)C(O)C(O)C2OC2C[C@](C)(N)C(O)C(C)O2)Oc2ccc(cc2Cl)C1O` (some centres undefined), for which the negative logarithm of the IC50 (pIC50) is 5.34 and the IC90 worked out at 16.9 µM.
Take `COC(=O)c1ccc(NC(=O)CSc2nc3ccc(N4C(=O)C5C6C=CC(C6)C5C4=O)cc3s2)cc1` (centres undefined): the pIC50 was 5.31 and the concentration for an effect of 90% (IC90) stood at 6.03 µM.
For `CCN1C(=NCCc2ccc(Br)cc2)N[C@@H](c2ccccc2)[C@H](C(=O)OC)[C@H]1C`, in that order: 4.65 and 25.8 µM.
Turning to `CCCNC(=S)Nc1ccc(Nc2ccccc2)cc1`, the pIC50 was 4.60 and the IC90 amounted to 44.5 µM.
As to `CCCCn1c(=O)c(C(=O)Nc2ncccc2C)c(O)c2ccccc21`, the negative logarithm of the IC50 (pIC50) was 4.77 and the IC90 was determined as 22.1 µM.
For `CN1C(=O)/C(=C/c2cccc(Cl)c2)Sc2ccc(C(=O)N3CCCC3)cc21`, in that order: 4.69 and 49.9 µM.
For the compound `COc1cc(N=Nc2ccc3ccccc3c2)ccc1O`, the negative logarithm of the IC50 (pIC50) was 4.40 and the 90% effect concentration (IC90) came out at 59.1 µM.
Consider `Cc1ccc(CNC(=O)c2sc3nc4c(c(C(F)(F)F)c3c2N)CCC4)cc1`, for which the negative-log IC50 (pIC50) was 4.33 and the concentration for an effect of 90% (IC90) was 50.9 µM.
For `O=C(CN1CCN(Cc2ccc(Cl)cc2)CC1)N/N=C/C=C/c1ccccc1[N+](=O)[O-]`, in that order: 4.44 and 45.6 µM.
For `CN(C)CCOc1nc(-c2ccccc2)nc2c1oc1ccccc12`, in that order: 4.72 and 25.6 µM.
For `CCn1nc(NC(=O)c2ccncc2)c2cc3cc(C)ccc3nc21`, in that order: 5.33 and more than 100 µM.
`O=C(c1cc2cc(F)ccc2[nH]1)N(Cc1cccnc1)CC1CCCN(C2CCCCC2)C1` (centres undefined): the pIC50 was 4.37 and the IC90 worked out at 46.1 µM.
Take `Cc1cc(C)c(CSc2ncc(-c3ccc([N+](=O)[O-])cc3)[nH]2)c(C)c1`: the pIC50 was 4.43 and the 90% effect concentration (IC90) worked out at 53.4 µM.
For `Cc1ccc2nc(-c3cccc(Br)c3)cc(C(=O)NC3=NCCS3)c2c1`, in that order: 4.56 and 43.2 µM.
`O=C(CCN1C(=O)/C(=C/c2ccccc2)SC1=S)Nc1ccccn1` showed a concentration for an effect of 90% (IC90) of more than 100 µM.
Consider `O=C(OCC#CCSc1nnc(-c2cccc3ccccc23)o1)c1cccs1`, for which the negative logarithm of the IC50 (pIC50) is 4.33 and the IC90 is more than 100 µM.
As for `Cc1cccc(/C=C/c2onc(C)c2[N+](=O)[O-])n1`, the pIC50 is 4.70 and the IC90 came out at 26.8 µM.
With `CN(Cc1ccc(Br)cc1)C(=O)CCN1C(=O)c2cccc([N+](=O)[O-])c2C1=O`, the pIC50 was 4.01 and the IC90 was more than 100 µM.
Regarding `Cc1ccc(C2=NNC3(CCOC(C)(C)C3)S2)cc1` (centres undefined), the pIC50 was 4.57 and the IC90 is 41.3 µM.
Turning to `Nc1ccc(C(=O)OCCCc2nc3cc4ccccc4cc3[nH]2)cc1`, the negative logarithm of the IC50 (pIC50) is 4.43 and the IC90 was 59.3 µM.
For `O=C(c1ccc([N+](=O)[O-])s1)N1CCN(c2ccc(C(F)(F)F)cn2)CC1`, in that order: 4.86 and 17.5 µM.
Consider `COC(=O)[C@H](CCSC)NC(=O)N1CCN(c2cccc(C(F)(F)F)c2)CC1`, for which the negative-log IC50 (pIC50) was 4.54 and the concentration for an effect of 90% (IC90) amounted to 58.8 µM.
Take `c1ccc(-c2nc3c(ccc4ccccc43)[nH]2)nc1`: the pIC50 was 4.50 and the IC90 worked out at 68.5 µM.
In the case of `O=C(Nc1nc2nc(-c3ccccc3)cc(=O)n2[nH]1)c1ccccc1`, the negative logarithm of the IC50 (pIC50) was 4.64 and the concentration for an effect of 90% (IC90) was more than 100 µM.
On to `CN(CCCNC(=O)c1cc2c(Cl)nc3ccccc3c2s1)Cc1ccccc1`, for which the pIC50 is 4.25 and the IC90 amounted to 91.1 µM.
For the compound `CC1=NN(c2ccccc2)C(=O)C1C(=O)c1ccccc1` (centres undefined), the pIC50 is 4.30 and the IC90 was 78 µM.
Regarding `O=C([O-])c1ccccc1-[n+]1c(-c2ccccc2)cc(-c2ccccc2)cc1-c1ccccc1`, the pIC50 is 4.66 and the 90% effect concentration (IC90) was found to be 24.5 µM.
Regarding `CCCCOc1ccc(-c2nnn(C(C)C(=O)OCC)n2)cc1` (centres undefined), the pIC50 is 5.55 and the 90% effect concentration (IC90) came out at 8.73 µM.
For `O=C(N/N=C\C=C\c1ccc([N+](=O)[O-])o1)c1cccs1`, in that order: 4.97 and 15.1 µM.
For `Cc1cccc(C)c1Nc1c(-c2ccccn2)nc2ccccn12`, in that order: 5.23 and 8.59 µM.
In the case of `COC(=O)C(C)Oc1cc(C)ccc1COc1ccc(-n2nc(C)n(C(F)F)c2=O)cc1` (centres undefined), the negative-log IC50 (pIC50) was 4.67 and the concentration for an effect of 90% (IC90) was determined as 27.5 µM.
In the case of `Cc1[nH]c2ccccc2c1/C=N/Nc1nc(Nc2ccccc2)nc(N2CCOCC2)n1`, the pIC50 was 5.18 and the concentration for an effect of 90% (IC90) came out at 13.6 µM.
For `COc1ccc(NC(=O)CN(C)CC(=O)Nc2sc3c(c2C(N)=O)CCC3)cc1`, in that order: 4.08 and more than 100 µM.
For `Cc1ccccc1Cn1ccc(=NCc2ccccc2)cc1`, in that order: 4.99 and 14 µM.
Turning to `CCCOc1cccc(-c2nn(-c3ccccc3)cc2/C=C(\C#N)C(=O)NCCCn2ccnc2)c1`, the pIC50 was 4.20 and the concentration for an effect of 90% (IC90) was 78.3 µM.
For `O=[N+]([O-])c1cn(-c2nc(-c3ccco3)cc(C(F)(F)F)n2)cn1`, in that order: 5.42 and more than 100 µM.
In the case of `COc1cccc2sc3ccc(C#CC4(N)CCCCC4)cc3c(=O)c12`, the pIC50 was 4.13 and the IC90 is more than 100 µM.
For `Cc1ccc(O)c(C(=O)CC(=O)c2ccccc2Cl)c1`, in that order: 4.75 and 27.3 µM.
Take `NC(=O)CSc1nnc(COc2ccc3ccccc3c2)o1`: the negative logarithm of the IC50 (pIC50) was 4.68 and the IC90 amounted to 27.3 µM.
Regarding `Cc1cccc(/C=C2/S/C(=N/N=C3\CC4CCC3(C)C4(C)C)NC2=O)c1` (centres undefined), the negative logarithm of the IC50 (pIC50) is 4.59 and the IC90 was more than 100 µM.
For `CCOC(=O)N1CCN(c2nc(N(c3ccccc3)c3ccccc3)nc(-n3ccnc3)n2)CC1`, in that order: 4.01 and more than 100 µM.
For `O=C1/C(=N\S(=O)(=O)c2cccs2)C([n+]2ccc(CCCc3ccccc3)cc2)=C([O-])c2ccccc21`, in that order: 4.64 and 25.7 µM.
For `Oc1ccc(Nc2nc(-c3ccc4ccccc4c3)cs2)cc1`, in that order: 4.08 and more than 100 µM.
As for `Cc1cc(C)c2nc(-c3ccncc3)cc(C(=O)N3CCN(Cc4ccccc4Cl)CC3)c2c1`, the pIC50 is 4.50 and the IC90 was 43.7 µM.
As for `CC(C)(C)OC(=O)NCCCCCc1nnc(SCc2ccc(F)cc2)o1`, the pIC50 was 4.12 and the concentration for an effect of 90% (IC90) is more than 100 µM.
For `CN(CCO)c1cc(Sc2nc3ccccc3s2)c2nonc2c1[N+](=O)[O-]`, the negative-log IC50 (pIC50) is 4.13 and the IC90 came out at 95 µM.
For `c1ccc(CN2CCN(CCCNc3ccc4nnc(-c5ccccc5)n4n3)CC2)cc1`, in that order: 4.66 and 25.3 µM.
For `Cc1ccc(OCCCCNC2CCCC(C)C2C)c(C)c1` (centres undefined), in that order: 4.64 and 25.4 µM.
On to `CCOc1cc(C=O)cc(N=Nc2cccc([N+](=O)[O-])c2)c1O`, for which the pIC50 is 5.08 and the IC90 was determined as 13.5 µM.
Regarding `CC(C)(O)C#Cc1ccc(C(=O)Nc2ccc3c(c2)OCO3)s1`, the negative logarithm of the IC50 (pIC50) is 4.37 and the IC90 was more than 100 µM.
For `O=C(CN1CCN(C(=O)COc2cccc(F)c2)CC1)Nc1ccc(Cl)c(C(F)(F)F)c1`, the pIC50 is 4.30 and the 90% effect concentration (IC90) was 57.4 µM.
For `CN(C(=S)NC(=O)c1ccc(Cl)cc1)C1CCCCC1`, in that order: 5.02 and 14.7 µM.
